Measured values published in patent US20160206637A1, “Effects of Alpha-Glycerophosphocholine Versus Caffeine in Measures of Cognitive, Psychological and Physiological Functions” (priority 2015, published 2016).

Columns and labels:
[1] = system: recreationally active participants; assay: Vertical jump test, peak power (Tendo Unit); assay type: in vivo, human; settings: 30 minutes after supplementation
Method: Participants were scored by the total number of successful catches. Following the non-fatiguing tests, the participants performed a standardized warm-up in which they walked on a treadmill for 5 minutes at 3 miles per hour. Following the warm-up, participants performed the fatiguing tests which included vertical jump, broad jump, 40 yard dash, and the pro-agility shuttle. […] Participants then performed three attempts for the standing broad jump. Maximum broad jump distance was recorded. Lastly, participants performed one 40 yard dash and one pro-agility shuttle (5-10-5 drill) on an indoor, wooden gymnasium floor. Times was measured by hand and recorded.
(§1) Upon arrival to the Human Performance Laboratory at Angelo State University on each of the 4 testing sessions, participants were provided with a sample of the supplement. Participants were assigned to consume a placebo, 200 mg of caffeine, 200 mg of α-GPC, and 400 mg of α-GPC in a randomized, double-blind, placebo controlled, cross-over manner. After consuming the supplement, participants waited 30 minutes before completing the testing protocol. All participants were advised that they should not have had anything to eat or drink, except for water, in the previous 8 hours. Additionally, participants were asked to refrain from consuming any food or beverages that contain caffeine or other stimulants for at least 24 hours prior to completing the testing sessions.
(§2) Twenty participants (10 males, 10 females; 22.0±3.4 years of age; height 171.9±7.4 cm; weight 56.8±8.6 kg) consumed 200 mg of αGPC (αGPC-L, Alpha-Size®, Chemi Nutra, Austin, Tex. USA), 400 mg of Alpha-GPC (αGPC-H), 200 mg of caffeine (CA), and a placebo (PL) in a randomized, double-blind, placebo-controlled, crossover design. Participants performed the following measurements 30 minutes after supplementation: visual analog scales (VAS) for six different moods, a serial subtraction test (SST), and tests for reaction time, hand-eye coordination, power, speed and agility.

[2] = system: recreationally active participants; assay: Serial subtraction test (SST) of cognitive function; assay type: in vivo, human; settings: 30 minutes after supplementation; for SST score (average time per correct calculation): 200 mg oral, crossover, 20 participants
Excerpt: Following supplementation, participants performed all non-fatiguing tests first.

[3] = system: healthy, college-aged males; assay: Upper body isometric test (UBIST) peak force; assay type: in vivo, human; settings: 600 mg daily
Method: The Institutional Review Board at the University of Louisiana at Lafayette reviewed the present investigation for ethics. The study was a double-blind, placebo-controlled crossover with a 1-week washout period that included 13 healthy, college-aged males (Means±SD; Age: 21.9±2.2 years, Height: 180.3±7.7 cm; Weight: 87.6±15.6 kg, VO2 max: 40.08±7.23 ml O2*kg^−1; body fat: 17.5±4.6%). Subjects reported to the lab and give informed consent, which included consent to publish, prior to baseline assessments, which included height and weight, an assessment of maximum aerobic capacity via a COSMED CPET system (COSMED, Rome ITL) with integrated electronically braked cycle ergometer as outlined in previous studies incorporated herein by reference (5) and body fat percentage via air displacement plethysmography (Bod Pod Gold Standard System, COSMED Rome, ITL). The following week trial one (random order: either placebo or 600 mg of αGPC) began. For the trials baseline performance testing was done and they were given an initial dose (placebo or α-GPC) while in the lab, 1 h later the performance testing (isometric mid-thigh pull, upper body isometric test) was repeated. The subjects were then given 6 days of additional pre-packaged supplement to take (morning and evening). The subjects reported back on day 6 of this period to repeat performance testing after the final dose of supplement. After a 1-week washout period, the subjects repeated the trial with the other treatment (see FIG. 4). […]
The participants were positioned on three elevated platforms with the chest directly suspended over a load cell anchored into the concrete floor of the lab (iLoad Pro, Loadstar Sensors, Fremont Calif.). […] The participants were placed in a push-up style position, with the hands at 150% of biacromial width, and the elbows at 90° of extension (measured via a goniometer). […] The load cell was set to capture data at maximum rate (150 Hz) and the data was exported and analyzed in JMP 11.0 (SAS Institute Inc, Ca1y NC). […]
(§3) Reliability was assessed for the isometric tests via Intra Class Correlation Coefficients (ICC). […]

[4] = system: healthy, college-aged males; assay: Isometric mid-thigh pull (IMTP) peak force; assay type: in vivo, human
Method: The Institutional Review Board at the University of Louisiana at Lafayette reviewed the present investigation for ethics. The study was a double-blind, placebo-controlled crossover with a 1-week washout period that included 13 healthy, college-aged males (Means±SD; Age: 21.9±2.2 years, Height: 180.3±7.7 cm; Weight: 87.6±15.6 kg, VO2 max: 40.08±7.23 ml O2*kg^−1; body fat: 17.5±4.6%). Subjects reported to the lab and give informed consent, which included consent to publish, prior to baseline assessments, which included height and weight, an assessment of maximum aerobic capacity via a COSMED CPET system (COSMED, Rome ITL) with integrated electronically braked cycle ergometer as outlined in previous studies incorporated herein by reference (5) and body fat percentage via air displacement plethysmography (Bod Pod Gold Standard System, COSMED Rome, ITL). The following week trial one (random order: either placebo or 600 mg of αGPC) began. For the trials baseline performance testing was done and they were given an initial dose (placebo or α-GPC) while in the lab, 1 h later the performance testing (isometric mid-thigh pull, upper body isometric test) was repeated. The subjects were then given 6 days of additional pre-packaged supplement to take (morning and evening). The subjects reported back on day 6 of this period to repeat performance testing after the final dose of supplement. After a 1-week washout period, the subjects repeated the trial with the other treatment (see FIG. 4).
The treatments consisted of 600 mg daily of α-GPC (Alphasize®, ChemiNutra, Austin Tex.) or a placebo. Both treatments were administered in the same capsules (gel caps) and were the same color (white). The α-GPC capsules were supplied with a certificate of analysis from a third party lab confirming the amount of active ingredient. The placebo capsule consisted of microcrystalline cellulose and magnesium stearate (Nature's Supplements, Carlsbad, Calif. USA). Both the participant and researcher were unaware of the identity of either treatment until the end of the study. […]
The isometric mid-thigh pull test (IMTP) is a well validated strength measure (Beckman, G, et al. “Relationship of isometric mid-thigh pull variables to weightlifting performance.” J. Sports Med. Phys Fitness 2010; 35:573-81). […] The height of the bar was adjusted so that the participant was in a position where the torso was upright (assessed via a contractors box level), the knees achieved between 120-130° of flexion (measured via a goniometer) and the arms were straight while holding the bar. […] The peak force was assessed at a sampling rate of 2000 Hz using an AMT1 Force Plate. […]
as §3

[5] = system: recreationally active participants; assay: Visual analog scale (VAS) for jitteriness; settings: 200 mg caffeine; compared to αGPC-H (400 mg), but not αGPC-L or PL; 30 minutes after supplementation
Method: as §1, §2

| Molecule | Vertical Jump Peak Power ([1]; 200 mg oral) | Vertical Jump Peak Power higher in comparison to PL ([1]; 200 mg oral) | Vertical Jump Peak Power ([1]; 400 mg oral (αGPC-H)) | Vertical Jump Peak Power higher in comparison to PL ([1]; 400 mg oral (αGPC-H)) | SST score (average time per correct calculation) [2] | SST scores faster compared to CA ([2]; 200 mg αGPC (αGPC-L) vs 200 mg caffeine) | SST scores faster compared to PL ([2]; 200 mg αGPC (αGPC-L) vs placebo) | magnitude based inference: likely beneficial for increasing upper body isometric force ([3]; 6 days) | UBIST force production, change from baseline ([3]; baseline to day 6) | UBIST effect size (ES, Cohen's d), treatment by time ([3]; day 6, vs placebo) | magnitude based inference: likely beneficial for increasing lower body isometric force production ([4]; 600 mg daily, 6 days) | IMTP effect size (ES, Cohen's d), treatment by time ([4]; 600 mg daily, day 6, vs placebo) | IMTP performance, acute treatment effect (repeated measures Anova) ([4]; 1 h after the initial dose, vs placebo) | increase in lower body isometric strength ([4]; 6 days of supplementation, 600 mg daily) | scores on the VAS for jitteriness [5] |
| --- | --- | --- | --- | --- | --- | --- | --- | --- | --- | --- | --- | --- | --- | --- | --- |
| α-Glycerophosphocholine [αGPC] | 2,041.3±547.2 W | 8.5% | 2,023.1±942.8 W | 7.5% | 6.19 ± 2.21 s | 18.1% | 10.5% | 68.3% | 50.9±167.2 N | 0.714 | 86.5% | 0.961 | did not reveal any main effects | > 3% |  |
| Cn1c(=O)c2c(ncn2C)n(C)c1=O [CA, caffeine] | 1,920.4±689.6 W | 2.0% |  |  | 7.32 ± 5.67 s |  |  |  |  |  |  |  |  |  | significantly higher |
